Experimental data published in ChEMBL document CHEMBL5252654 (ACS Med Chem Lett, 2023).
pEC50, pIC50, pKd: −log10 of the molar value. Each block holds one compound with its values, some of them ahead of it.

Key:
Phosphodiesterase 3 = Phosphodiesterase 3 (Homo sapiens, UniProt Q14432+Q13370); test: Inhibition of human recombinant PDE3 expressed in Escherichia coli
[1] = biological target: T1, cGMP-inhibited 3',5'-cyclic phosphodiesterase 3B (Homo sapiens, UniProt Q13370); test: Inhibition of PDE3B (unknown origin)
Ribonuclease SLFN12 [2] = biological target: T2, Ribonuclease SLFN12 (Homo sapiens, UniProt Q8IYM2); test: Binding affinity to human recombinant SLFN12 expressed as Escherichia coli assessed as dissociation constant
Ribonuclease SLFN12 [3] = biological target: T2, Ribonuclease SLFN12; test: Binding affinity to SLFN12 (unknown origin) assessed as dissociation constant
[4] = biological target: T1, cGMP-inhibited 3',5'-cyclic phosphodiesterase 3B; test: Binding affinity to human recombinant PDE3B expressed as Escherichia coli assessed as dissociation constant
[5] = biological target: T3, cGMP-inhibited 3',5'-cyclic phosphodiesterase 3A (Homo sapiens, UniProt Q14432); test: Inhibition of PDE3A (unknown origin)
[6] = biological target: T3, cGMP-inhibited 3',5'-cyclic phosphodiesterase 3A; test: Binding affinity to PDE3A (unknown origin) assessed as dissociation constant
HeLa [7] = test: Cytotoxicity against human HeLa cells assessed as reduction in cell viability after 72 hrs by MTT assay; format: functional, cell-based
[8] = Antiplatelet activity against ADP-induced Wistar rat platelet aggregation assessed as inhibition of platelet aggregation; format: functional, cell-based
[9] = Antiplatelet aggregation activity in human rich plasma assessed as reduction in ADP-induced platelet aggregation; format: functional, cell-based
[10] = Inhibition of Rhesus monkey blood platelet aggregation at 4 mg/kg, po; format: functional; settings: Macaca mulatta
[11] = Antiplatelet aggregation activity in dog rich plasma assessed as reduction in ADP-induced platelet aggregation; format: functional, cell-based; settings: Canis lupus familiaris
[12] = Antiplatelet aggregation activity in rhesus monkey platelet rich plasma assessed as reduction in collagen-induced platelet aggregation; format: functional, cell-based; settings: Macaca mulatta
HeLa [13] = test: Antiproliferative activity against human HeLa cells assessed as reduction in cell growth; format: functional, cell-based
[14] = Inhibition of rhesus monkey blood platelet aggregation at 1 mg/kg, po; format: functional; settings: Macaca mulatta
[15] = Antiplatelet activity in rabbit platelet rich plasma assessed as inhibition of collagen-induced platelet aggregation; format: functional, cell-based; settings: Oryctolagus cuniculus
[16] = Antiplatelet activity in rabbit platelet rich plasma assessed as inhibition of arachidonic acid-induced platelet aggregation; format: functional, cell-based; settings: Oryctolagus cuniculus
[17] = Antiplatelet aggregation activity in human rich plasma assessed as reduction in collagen-induced platelet aggregation; format: functional, cell-based
[18] = Antiplatelet aggregation activity in Sprague-Dawley rat platelet rich plasma assessed as reduction in ADP-induced platelet aggregation; format: functional, cell-based
HeLa [19] = test: Antiproliferative activity against human HeLa cells assessed as reduction in cell viability measured after 72 hrs by MTT assay; format: functional, cell-based
[20] = Antiplatelet activity in rabbit platelet rich plasma assessed as inhibition of thrombin-induced platelet aggregation; format: functional, cell-based; settings: Oryctolagus cuniculus
[21] = Antiplatelet aggregation activity in Sprague-Dawley rat platelet rich plasma assessed as reduction in collagen-induced platelet aggregation; format: functional, cell-based
[22] = Antiplatelet aggregation activity in rhesus monkey platelet rich plasma assessed as reduction in ADP-induced platelet aggregation; format: functional, cell-based; settings: Macaca mulatta
[23] = Antiplatelet aggregation activity in rabbit platelet rich plasma assessed as reduction in ADP-induced platelet aggregation; format: functional, cell-based; settings: Oryctolagus cuniculus
Oryctolagus cuniculus = test: Antithrombotic activity in New Zealand White biolaser-induced oral dosed rabbit model assessed as reduction in thrombus mass; format: functional
[24] = Half life in Beagle dog at 0.29 to 4.86 mg/kg, po; format: ADME, organism-based, Canis lupus familiaris; settings: in vivo, dose 0.29-4.86 mg/kg
[25] = Antiplatelet aggregation activity in rabbit platelet-rich plasma assessed as reduction in ADP-induced aggregation incubated for 5 mins by aggregometry; format: functional, cell-based; settings: Oryctolagus cuniculus
[26] = Antiplatelet activity in rabbit platelet rich plasma assessed as inhibition of antigen-antibody-induced platelet aggregation; format: functional, cell-based; settings: Oryctolagus cuniculus
[27] = Half life in Wistar rat at 0.29 to 4.86 mg/kg, po; format: ADME, organism-based; settings: in vivo, dose 0.29-4.86 mg/kg
[28] = Antiproliferative activity against human QGY-7701 cells assessed as reduction in cell viability measured after 72 hrs by MTT assay; format: functional, cell-based; settings: QGY7701, 72 h

T1 sequence (Q13370 whole entry): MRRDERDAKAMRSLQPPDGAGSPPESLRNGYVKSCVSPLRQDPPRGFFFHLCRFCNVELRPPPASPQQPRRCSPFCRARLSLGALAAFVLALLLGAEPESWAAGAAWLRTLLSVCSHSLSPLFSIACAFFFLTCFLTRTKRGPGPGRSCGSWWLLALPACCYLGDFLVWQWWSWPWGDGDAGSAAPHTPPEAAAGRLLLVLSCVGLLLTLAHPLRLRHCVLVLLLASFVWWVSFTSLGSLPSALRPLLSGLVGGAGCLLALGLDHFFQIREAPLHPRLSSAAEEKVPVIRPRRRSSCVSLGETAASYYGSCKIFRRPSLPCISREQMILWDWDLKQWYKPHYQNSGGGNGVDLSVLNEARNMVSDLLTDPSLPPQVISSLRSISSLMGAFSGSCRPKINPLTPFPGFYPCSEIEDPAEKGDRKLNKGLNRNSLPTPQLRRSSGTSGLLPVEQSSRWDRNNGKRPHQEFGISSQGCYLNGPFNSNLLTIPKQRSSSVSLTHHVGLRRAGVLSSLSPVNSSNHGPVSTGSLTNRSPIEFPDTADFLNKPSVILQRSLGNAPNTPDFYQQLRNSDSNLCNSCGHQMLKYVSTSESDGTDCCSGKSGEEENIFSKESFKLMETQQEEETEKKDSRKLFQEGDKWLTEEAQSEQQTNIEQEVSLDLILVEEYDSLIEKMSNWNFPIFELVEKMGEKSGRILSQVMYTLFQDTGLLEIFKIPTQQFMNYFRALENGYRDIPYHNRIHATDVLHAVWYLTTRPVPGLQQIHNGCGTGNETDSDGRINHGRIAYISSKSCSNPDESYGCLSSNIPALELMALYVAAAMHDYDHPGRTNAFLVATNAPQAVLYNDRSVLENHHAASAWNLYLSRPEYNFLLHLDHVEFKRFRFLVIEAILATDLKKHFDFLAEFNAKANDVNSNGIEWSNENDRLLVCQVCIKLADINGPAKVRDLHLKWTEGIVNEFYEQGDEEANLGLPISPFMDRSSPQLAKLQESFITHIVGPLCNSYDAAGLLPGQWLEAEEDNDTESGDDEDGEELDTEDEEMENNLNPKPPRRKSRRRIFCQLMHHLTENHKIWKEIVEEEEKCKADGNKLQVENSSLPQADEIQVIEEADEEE
T3 sequence (Q14432 whole entry): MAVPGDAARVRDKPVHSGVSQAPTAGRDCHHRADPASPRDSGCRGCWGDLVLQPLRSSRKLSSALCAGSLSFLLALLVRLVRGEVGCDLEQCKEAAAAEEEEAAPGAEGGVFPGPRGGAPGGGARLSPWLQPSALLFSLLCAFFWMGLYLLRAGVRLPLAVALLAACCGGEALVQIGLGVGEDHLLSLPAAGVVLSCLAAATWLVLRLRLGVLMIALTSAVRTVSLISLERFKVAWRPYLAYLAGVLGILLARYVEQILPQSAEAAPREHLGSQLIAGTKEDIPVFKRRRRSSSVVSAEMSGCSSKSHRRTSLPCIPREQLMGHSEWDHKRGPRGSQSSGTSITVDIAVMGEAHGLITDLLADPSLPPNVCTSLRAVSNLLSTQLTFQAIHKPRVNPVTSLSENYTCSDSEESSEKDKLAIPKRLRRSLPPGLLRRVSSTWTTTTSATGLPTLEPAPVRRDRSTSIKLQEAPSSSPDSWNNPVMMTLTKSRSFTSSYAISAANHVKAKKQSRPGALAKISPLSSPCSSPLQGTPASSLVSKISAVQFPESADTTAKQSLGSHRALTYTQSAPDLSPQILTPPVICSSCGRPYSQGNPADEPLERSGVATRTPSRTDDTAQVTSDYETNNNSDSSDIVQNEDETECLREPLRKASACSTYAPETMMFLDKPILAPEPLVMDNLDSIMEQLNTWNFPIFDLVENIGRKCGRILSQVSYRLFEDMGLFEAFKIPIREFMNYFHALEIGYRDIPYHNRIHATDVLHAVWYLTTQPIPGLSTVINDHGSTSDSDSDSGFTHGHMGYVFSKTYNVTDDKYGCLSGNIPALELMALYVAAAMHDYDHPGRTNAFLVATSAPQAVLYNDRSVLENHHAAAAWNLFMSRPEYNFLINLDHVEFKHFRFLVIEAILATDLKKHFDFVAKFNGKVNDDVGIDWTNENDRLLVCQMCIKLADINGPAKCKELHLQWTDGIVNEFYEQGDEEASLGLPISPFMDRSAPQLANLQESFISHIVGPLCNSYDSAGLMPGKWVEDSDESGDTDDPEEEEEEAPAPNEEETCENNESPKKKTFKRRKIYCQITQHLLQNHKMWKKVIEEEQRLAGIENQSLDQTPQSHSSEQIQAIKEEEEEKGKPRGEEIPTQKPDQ
T2 sequence (Q8IYM2 whole entry): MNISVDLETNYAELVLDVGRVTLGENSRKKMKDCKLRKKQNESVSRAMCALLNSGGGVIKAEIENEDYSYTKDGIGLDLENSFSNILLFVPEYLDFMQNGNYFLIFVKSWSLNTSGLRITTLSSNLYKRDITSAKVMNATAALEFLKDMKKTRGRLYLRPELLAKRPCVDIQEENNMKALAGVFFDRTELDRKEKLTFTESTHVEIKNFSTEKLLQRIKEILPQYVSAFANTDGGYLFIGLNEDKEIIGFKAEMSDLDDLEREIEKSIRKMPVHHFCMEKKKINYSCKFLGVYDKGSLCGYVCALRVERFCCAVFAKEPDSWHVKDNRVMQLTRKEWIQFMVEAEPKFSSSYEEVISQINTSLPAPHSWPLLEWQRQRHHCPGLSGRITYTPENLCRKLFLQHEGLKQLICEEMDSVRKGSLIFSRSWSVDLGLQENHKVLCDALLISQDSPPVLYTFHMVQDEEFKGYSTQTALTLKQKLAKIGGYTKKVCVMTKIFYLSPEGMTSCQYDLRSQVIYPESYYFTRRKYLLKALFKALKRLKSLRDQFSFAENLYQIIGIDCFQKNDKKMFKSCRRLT

- IC50 (Phosphodiesterase 3): 90 nM
Structure (SMILES): CC1CC(=O)NN=C1c1ccc2c(c1)CCC(=O)N2C (stereo unspecified)

- pIC50 [1]: 7.00
- pKd (Ribonuclease SLFN12 [2]): 7.19
- pKd (Ribonuclease SLFN12 [3]): 6.06
- pKd [4]: 6.49
- pIC50 [5]: 7.60
- pKd [6]: 7.40
Structure (SMILES): CCN(CC)c1ccc(C2=NNC(=O)C[C@H]2C)cc1[N+](=O)[O-]

Structure (SMILES): O=C1CN2Cc3c(ccc(-c4ccc(Cl)cc4)c3Cl)N=C2N1
- pEC50 (HeLa [7]): 8.74

Structure (SMILES): O=C1CN2Cc3c(ccc(Br)c3Cl)N=C2N1
- pEC50 (HeLa [7]): 8.60

Structure (SMILES): O=C1CN2Cc3c(ccc(-c4ccoc4)c3Cl)N=C2N1
- pEC50 (HeLa [7]): 9.22

Structure (SMILES): C[C@@H]1OC(=O)NN=C1c1ccc(-c2ccc(F)cc2)c(C(F)(F)F)c1
- pEC50 (HeLa [7]): 8.89

Structure (SMILES): Cc1ccccc1-c1ccc2c(c1Cl)CN1CC(=O)NC1=N2
- pEC50 (HeLa [7]): 8.96

Structure (SMILES): Cc1cccc(-c2ccc3c(c2Cl)CN2CC(=O)NC2=N3)c1
- pEC50 (HeLa [7]): 8.86

Structure (SMILES): O=C1CN2Cc3c(Cl)cccc3N=C2N1
- pEC50 (HeLa [7]): 7.37

Structure (SMILES): CCc1ccc(-c2ccc3c(c2Cl)CN2CC(=O)NC2=N3)cc1
- pEC50 (HeLa [7]): 8.74

Structure (SMILES): N#Cc1ccc(-c2ccc3c(c2Cl)CN2CC(=O)NC2=N3)cc1
- pEC50 (HeLa [7]): 8.62

- IC50 (Phosphodiesterase 3): 32 nM
- pEC50 [8]: 7.32
Structure (SMILES): O=C1NC2=Nc3ccc(Cl)c(Cl)c3CN2C1O (stereo unspecified)

Structure (SMILES): O=C1CN2Cc3c(ccc(F)c3Cl)N=C2N1
- pEC50 (HeLa [7]): 7.47

Structure (SMILES): O=C1CN2Cc3c(ccc(-c4ccncc4)c3Cl)N=C2N1
- pEC50 (HeLa [7]): 8.21

Structure (SMILES): O=C1CN2Cc3c(ccc(-c4ccccc4)c3Cl)N=C2N1
- pEC50 (HeLa [7]): 9.25

Structure (SMILES): Cc1ccc(-c2ccc3c(c2Cl)CN2CC(=O)NC2=N3)cc1
- pEC50 (HeLa [7]): 9.52

Structure (SMILES): O=C1CN2Cc3c(ccc(-c4ccc(O)cc4)c3Cl)N=C2N1
- pEC50 (HeLa [7]): 7.91

Structure (SMILES): O=C1CN2Cc3c(ccc(-c4ccsc4)c3Cl)N=C2N1
- pEC50 (HeLa [7]): 8.75

Structure (SMILES): O=C1CN2Cc3c(cc(Cl)c(-c4ccccc4)c3Cl)N=C2N1
- pEC50 (HeLa [7]): 8.94

- pEC50 [9]: 6.40
- pEC50 [11]: 6.51
- pEC50 [12]: 7.10
- pEC50 (HeLa [13]): 8.40
- pEC50 [15]: 6.51
- pEC50 [16]: 6.41
- pEC50 [17]: 7.10
- pEC50 [18]: 6.57
- pEC50 (HeLa [19]): 8.29
- pEC50 [20]: 6.15
- pEC50 [21]: 6.82
- pEC50 [22]: 6.30
- pEC50 [8]: 7.57
- pEC50 [23]: 5.92
- half-life [24]: 19 h
- EC50 [25]: < 1 µg/mL
- pEC50 [26]: 6.13
- half-life [27]: 7 h
Structure (SMILES): O=C1CN2Cc3c(ccc(Cl)c3Cl)N=C2N1 [ANAGRELIDE]
- inhibition in vivo at 4 mg/kg [10]: 47%
- pEC50 (HeLa [7]): 8.18
- inhibition in vivo at 1 mg/kg [14]: 24%
- ED50 (Oryctolagus cuniculus): 2.5 mg/kg

- IC50 (Phosphodiesterase 3): 200 nM
Structure (SMILES): O=C1CCc2cc(OCCCCc3nnnn3C3CCCCC3)ccc2N1 [CILOSTAZOL]

Structure (SMILES): C[C@]12CC[C@@H]3c4ccc(O)cc4CC[C@H]3[C@@H]1CC[C@@H]2O [ESTRADIOL]
- pEC50 (HeLa [7]): 9.15

- IC50 (Phosphodiesterase 3): 580 nM
Structure (SMILES): C[C@@H]1C(=O)NC2=Nc3cccc(Cl)c3CN21 [QUAZINONE]

Structure (SMILES): COc1cc(-c2ccc(=O)[nH]n2)ccc1OC(F)F [ZARDAVERINE]
- pEC50 [28]: 7.25
